Results from patent US20130252930A1 (BIOMARIN PHARMACEUTICAL INC., priority 2010, published 2013).

Biological target: T1, CYP17 (human testicular microsome) (Homo sapiens, UniProt P05093)
T1 construct: using microsomal fraction from human testis (Celsis Cat #S00110) as the enzyme source; tissue Celsis S00110; host or cells: human testis microsomal fraction
T1 sequence (P05093 1-508): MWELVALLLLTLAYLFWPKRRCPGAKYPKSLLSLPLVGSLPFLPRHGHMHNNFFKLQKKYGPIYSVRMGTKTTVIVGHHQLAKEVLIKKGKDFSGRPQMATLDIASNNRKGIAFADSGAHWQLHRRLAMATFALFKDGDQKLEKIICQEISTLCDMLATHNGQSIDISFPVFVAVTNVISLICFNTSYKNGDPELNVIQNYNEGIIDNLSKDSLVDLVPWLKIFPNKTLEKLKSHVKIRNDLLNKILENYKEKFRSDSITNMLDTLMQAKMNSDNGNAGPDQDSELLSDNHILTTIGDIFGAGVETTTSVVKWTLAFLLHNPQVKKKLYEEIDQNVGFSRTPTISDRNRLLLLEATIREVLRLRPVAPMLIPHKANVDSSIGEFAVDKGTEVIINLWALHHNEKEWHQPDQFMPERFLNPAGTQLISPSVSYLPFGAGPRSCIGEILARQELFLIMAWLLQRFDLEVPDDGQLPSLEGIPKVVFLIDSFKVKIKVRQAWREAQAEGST
Experiment: CYP17 enzymatic assay (% inhibition at 1 nM) (Biological Example 12)
Assay type: biochemical
Details: compound at 1 nM

| SMILES | Biological Example No. 12: CYP17 enzymatic assay % inhibition at 1 nM |
| --- | --- |
| C[C@]12CCNC(=O)CC1CCC1C2CC[C@]2(C)C(c3cncc(F)c3)=CCC12 (stereo partly drawn) [Compound 481, (5aS,7aS)-8-(5-fluoropyridin-3-yl)-5a,7a-dimethyl-4,5,5a,5b,6,7,7a,10,10a,10b,11,12,12a-tetradecahydrocyclopenta[5,6]naphtho[1,2-d]azepin-2(1H)-one] | N (N means the compound had a percent inhibition of greater than or equal to 10% but less than 50%) |

Same assay, conditions: compound at 1 nM, read-out: Biological Example No. 12: CYP17 enzymatic assay % inhibition at 1 nM

| SMILES | inhibition at 0.001 µM [%] |
| --- | --- |
| C[C@]12CCC3(CO3)CC1CCC1C2CC[C@]2(C)C(c3cccnc3)=CCC12 (stereo partly drawn) [Compound 475, 3-((10S,13S)-10,13-dimethyl-1,2,4,5,6,7,8,9,10,11,12,13,14,15-tetradecahydrospiro[cyclopenta[a]phenanthrene-3,2′-oxiran]-17-yl)pyridine] | 10 to 50 |
| C[C@]12CCC3(CCC(=O)O3)CC1CCC1C2CC[C@]2(C)C(c3cccnc3)=CCC12 (stereo partly drawn) [Compound 477, (10S,13S)-10,13-dimethyl-17-(pyridin-3-yl)-1,2,4,5,6,7,8,9,10,11,12,13,14,15-tetradecahydro-3′H-spiro[cyclopenta[a]phenanthrene-3,2′-furan]-5′(4′H)-one] | < 10 |
| CCNC(=O)N[C@@H]1CC[C@@]2(C)C(=CCC3C2CC[C@]2(C)C(c4cncc(F)c4)=CCC32)C1 (stereo partly drawn) [Compound 478, 1-ethyl-3-((3R,10R,13S)-17-(5-fluoropyridin-3-yl)-10,13-dimethyl-2,3,4,7,8,9,10,11,12,13,14,15-dodecahydro-1H-cyclopenta[a]phenanthren-3-yl)urea] | 10 to 50 |
| C[C@]12CCNC(=O)CC1CCC1C2CC[C@]2(C)C(c3cncc(C(F)F)c3)=CCC12 (stereo partly drawn) [Compound 483, (5aS,7aS)-8-(5-(difluoromethyl)pyridin-3-yl)-5a,7a-dimethyl-3,4,5,5a,5b,6,7,7a,10,10a,10b,11,12,12a-tetradecahydrocyclopenta[5,6]naphtho[1,2-d]azepin-2(1H)-one] | > 50 |

Same assay, conditions: compound at 1 nM, read-out: CYP17 enzymatic assay % inhibition at 1 nM (Biological Example No. 12)

| inhibition at 0.001 µM [%] | SMILES |
| --- | --- |
| 10 to 50 | Cc1cncc(C2=CC=C3[C@@H]4CCC5CNC(=O)CC[C@]5(C)[C@H]4CC[C@]23C)c1 (stereo partly drawn) [Compound 461, (5aR,5bS,7aS,10bR)-5a,7a-dimethyl-8-(5-methylpyridin-3-yl)-1,2,5,5a,5b,6,7,7a,10b,11,12,12a-dodecahydrocyclopenta[5,6]naphtho[2,1-c]azepin-3(4H)-one] |
| 10 to 50 | Cc1ccncc1C1=CC=C2C3CCC4CC(=O)NCC[C@]4(C)C3CC[C@]12C (stereo partly drawn) [Compound 463, (5aS,7aS)-5a,7a-dimethyl-8-(4-methylpyridin-3-yl)-3,4,5,5a,5b,6,7,7a,10b,11,12,12a-dodecahydrocyclopenta[5,6]naphtho[1,2-d]azepin-2(1H)-one] |
| 10 to 50 | Cc1ccncc1C1=CC=C2C3CCC4CNC(=O)CC[C@]4(C)C3CC[C@]12C (stereo partly drawn) [Compound 464, (5aR,7aS)-5a,7a-dimethyl-8-(4-methylpyridin-3-yl)-1,2,5,5a,5b,6,7,7a,10b,11,12,12a-dodecahydrocyclopenta[5,6]naphtho[2,1-c]azepin-3(4H)-one] |
| 10 to 50 | CCc1ccncc1C1=CC=C2C3CCC4CC(=O)NCC[C@]4(C)C3CC[C@]12C (stereo partly drawn) [Compound 467, (5aS,7aS)-8-(4-ethylpyridin-3-yl)-5a,7a-dimethyl-3,4,5,5a,5b,6,7,7a,10b,11,12,12a-dodecahydrocyclopenta[5,6]naphtho[1,2-d]azepin-2(1H)-one] |
| 10 to 50 | CCc1ccncc1C1=CC=C2C3CCC4CNC(=O)CC[C@]4(C)C3CC[C@]12C (stereo partly drawn) [Compound 468, (5aR,7aS)-8-(4-ethylpyridin-3-yl)-5a,7a-dimethyl-1,2,5,5a,5b,6,7,7a,10b,11,12,12a-dodecahydrocyclopenta[5,6]naphtho[2,1-c]azepin-3(4H)-one] |
| 10 to 50 | CCc1ccncc1C1=CC[C@H]2[C@@H]3CC[C@H]4CC(=O)NCC[C@]4(C)[C@H]3CC[C@]12C [Compound 469, (5aS,5bS,7aS,10aS,10bR,12aS)-8-(4-ethylpyridin-3-yl)-5a,7a-dimethyl-3,4,5,5a,5b,6,7,7a,10,10a,10b,11,12,12a-tetradecahydrocyclopenta[5,6]naphtho[1,2-d]azepin-2(1H)-one] |
| < 10 | CCc1ccncc1C1=CC[C@H]2[C@@H]3CC[C@H]4CNC(=O)CC[C@]4(C)[C@H]3CC[C@]12C [Compound 470, (5aR,5bS,7aS,10aS,10bR,12aR)-8-(4-ethylpyridin-3-yl)-5a,7a-dimethyl-1,2,5,5a,5b,6,7,7a,10,10a,10b,11,12,12a-tetradecahydrocyclopenta[5,6]naphtho[2,1-c]azepin-3(4H)-one] |

| SMILES | inhibition at 0.001 µM [%] |
| --- | --- |
| CO[C@H]1CC[C@@]2(C)C(=CCC3C2CC[C@]2(C)C(n4ccnc4)=CCC32)C1 (stereo partly drawn) [Compound 459, 1-((3S,10R,13S)-3-methoxy-10,13-dimethyl-2,3,4,7,8,9,10,11,12,13,14,15-dodecahydro-1H-cyclopenta[a]phenanthren-17-yl)-1H-imidazole] | 10 to 50 |
| CCc1ccncc1C1=CC=C2C3CCC4C[C@@H](O)CC[C@]4(C)C3CC[C@]12C (stereo partly drawn) [Compound 465, (3S,10S,13S)-17-(4-ethylpyridin-3-yl)-10,13-dimethyl-2,3,4,5,6,7,8,9,10,11,12,13-dodecahydro-1H-cyclopenta[a]phenanthren-3-ol] | < 10 |
| CC(=O)O[C@H]1CC[C@@]2(C)C(CCC3C4=CC=C(c5cnccc5C)[C@@]4(C)CCC32)C1 (stereo partly drawn) [Compound 466, (3S,10S,13S)-10,13-dimethyl-17-(4-methylpyridin-3-yl)-2,3,4,5,6,7,8,9,10,11,12,13-dodecahydro-1H-cyclopenta[a]phenanthren-3-yl acetate] | 10 to 50 |
| C[C@]12CC[C@H](O)CC1CCC1C2CC[C@]2(C)C(c3ccc[n+]([O-])c3)CCC12 (stereo partly drawn) [Compound 472, 3-((3S,10S,13S)-3-hydroxy-10,13-dimethylhexadecahydro-1H-cyclopenta[a]phenanthren-17-yl)pyridine 1-oxide] | 10 to 50 |
| C[C@]12CC[C@H](O)CC1CCC1C2CC[C@]2(C)C(c3cccnc3)CCC12 (stereo partly drawn) [Compound 473, (3S,10S,13S)-10,13-dimethyl-17-(pyridin-3-yl)hexadecahydro-1H-cyclopenta[a]phenanthren-3-ol] | < 10 |

Same assay, conditions: test compound at 1 nM, read-out: CYP17 enzymatic assay percent inhibition at 1 nM (Biological Example No. 12)

| SMILES | inhibition at 0.001 µM [%] |
| --- | --- |
| Cc1ccncc1C1=CC[C@H]2[C@@H]3CC[C@H]4CNC(=O)CC[C@]4(C)[C@H]3CC[C@]12C [Compound 484, (5aR,5bS,7aS,10aS,10bR,12aR)-5a,7a-dimethyl-8-(4-methylpyridin-3-yl)-1,2,5,5a,5b,6,7,7a,10,10a,10b,11,12,12a-tetradecahydrocyclopenta[5,6]naphtho[2,1-c]azepin-3(4H)-one] | 10 to 50 |
| Cc1ccncc1C1=CC=C2C3CCC4C[C@@H](O)CC[C@]4(C)C3CC[C@]12C (stereo partly drawn) [Compound 485, (3S,10S,13S)-10,13-dimethyl-17-(4-methylpyridin-3-yl)-2,3,4,5,6,7,8,9,10,11,12,13-dodecahydro-1H-cyclopenta[a]phenanthren-3-ol] | 10 to 50 |
| Cc1ccncc1C1=CC=C2C3CCC4CC(=O)CC[C@]4(C)C3CC[C@]12C (stereo partly drawn) [Compound 486, (10S,13S)-10,13-dimethyl-17-(4-methylpyridin-3-yl)-4,5,6,7,8,9,10,11,12,13-decahydro-1H-cyclopenta[a]phenanthren-3(2H)-one] | 10 to 50 |
| CCc1ccncc1C1=CC=C2C3CCC4C[C@@H](OC(C)=O)CC[C@]4(C)C3CC[C@]12C (stereo partly drawn) [Compound 487, (3S,10S,13S)-17-(4-ethylpyridin-3-yl)-10,13-dimethyl-2,3,4,5,6,7,8,9,10,11,12,13-dodecahydro-1H-cyclopenta[a]phenanthren-3-yl acetate] | 10 to 50 |
| CCc1ccncc1C1=CC=C2C3CCC4CC(=O)CC[C@]4(C)C3CC[C@]12C (stereo partly drawn) [Compound 488, (10S,13S)-17-(4-ethylpyridin-3-yl)-10,13-dimethyl-4,5,6,7,8,9,10,11,12,13-decahydro-1H-cyclopenta[a]phenanthren-3(2H)-one] | 10 to 50 |

Biological target: T1, CYP17 (human testicular microsome)
Experiment: CYP17 enzymatic assay (IC50) (Biological Example 4)
Assay type: biochemical
Details: human testicular microsome, DHEA by ELISA; read-out: Biological Example No. 4: CYP17 enzymatic assay IC50

| IC50 [nM] | SMILES |
| --- | --- |
| < 11 | CC(=O)O[C@H]1CC[C@@]2(C)C(=CC[C@H]3C4=CC=C(n5ccnc5)[C@@]4(C)CC[C@@H]32)C1 [Compound 73, (3S,10R,13S)-17-(1H-imidazol-1-yl)-10,13-dimethyl-2,3,4,7,8,9,10,11,12,13-decahydro-1H-cyclopenta[a]phenanthren-3-yl acetate] |

Same assay, conditions: human testicular microsome; read-out: Biological Example No. 4: CYP17 enzymatic assay IC50

| SMILES | IC50 [nM] |
| --- | --- |
| C[C@]12CCC3C(CCC4CC(F)(F)CC[C@@]43C)C1=CC=C2c1cncc(F)c1 (stereo partly drawn) [Compound 402, 3-((10S,13S)-3,3-difluoro-10,13-dimethyl-2,3,4,5,6,7,8,9,10,11,12,13-dodecahydro-1H-cyclopenta[a]phenanthren-17-yl)-5-fluoropyridine] | > 25 |
| C[C@]12CCC3C(CCC4CC(F)(F)CC[C@@]43C)C1=CC=C2c1cccnc1 (stereo partly drawn) [Compound 403, 3-((10S,13S)-3,3-difluoro-10,13-dimethyl-2,3,4,5,6,7,8,9,10,11,12,13-dodecahydro-1H-cyclopenta[a]phenanthren-17-yl)pyridine] | < 11 |
